Laboratory results taken from patent EP0010119A1, “Isoquinoline derivatives, their preparation and pharmaceutical compositions containing these compounds” (THE MASSACHUSETTS GENERAL HOSPITAL, priority 1978, dated 1980).

Experiments:
[1] = test system: twitch response of the tibialis anterior muscle; assay: Neuromuscular block of the twitch response of the tibialis anterior muscle in anesthetized monkeys; format: in vivo, RHESUS MONKEY
[2] = test system: skeletal muscle relaxation; settings: in vivo; cited from earlier work
[3] = time span from drug injection to full recovery of the twitch response, halothane, nitrous oxide and oxygen anesthesia, 4 animals per compound

Row | SMILES | Range of dupation of action (minutes from injection to full recovery) [1, 3] [min] | further results
1 | COc1ccc(CC2c3cc(OC)c(OC)cc3CC[N+]2(C)CCCOC(=O)C=Cc2ccc(C=CC(=O)OCCC[N+]3(C)CCc4cc(OC)c(OC)cc4C3Cc3ccc(OC)c(OC)c3)cc2)cc1OC (stereo not shown) [GG195, Bis-3-[N-methyl-1-(3,4-dimethoxybenzyl) 6,7-dimethoxy-1,2,3,4-tetrahydroisoquinolinium] propyl p-phenylene-3,3'-diacrylate dichlorid] | 15 to 30 | –
2 | COc1cc2c(cc1OC)C(Cc1cc(OC)c(OC)c(OC)c1)[N+](C)(CCCOC(=O)C=Cc1ccc(C=CC(=O)OCCC[N+]3(C)CCc4cc(OC)c(OC)cc4C3Cc3cc(OC)c(OC)c(OC)c3)cc1)CC2 (stereo not drawn) [HH109, Bis-3-[N-methyl-l-(3,4,5-trimethoxybenzyl)] 6,7-dimethoxy-1,2,3,4-tetrahydroisoquinolinium propyl p-phenylene-3,3'-diacrylate dichloride] | 20 to 30 | –
3 | COc1ccc(CC2c3cc(OC)c(OC)cc3CC[N+]2(C)CCCOC(=O)Cc2ccc(CC(=O)OCCC[N+]3(C)CCc4cc(OC)c(OC)cc4C3Cc3ccc(OC)c(OC)c3)cc2)cc1OC (stereo not shown) [KK100] | 10 to 20 | –
4 | COc1cc2c(cc1OC)C(Cc1cc(OC)c(OC)c(OC)c1)[N+](C)(CCCOC(=O)Cc1ccc(CC(=O)OCCC[N+]3(C)CCc4cc(OC)c(OC)cc4C3Cc3cc(OC)c(OC)c(OC)c3)cc1)CC2 (stereo not shown) [LL46, Bis-3-(N-methyl-1-(3,4,5-trimethoxybenzyl) 6,7-dimethoxy-1,2,3,4-tetrahydroisoquinolinium) propyl p-phenylene-3,3'-diacetate dichloride] | 15 to 25 | –
5 | C[N+](C)(C)CCOC(=O)CCC(=O)OCC[N+](C)(C)C [Succinyl-choline, succinylcholine chloride] | – | duration of action [2]: 5 to 15 min; ED95 ([1]; rhesus monkey, in vivo): 1,0 - 2,0 MG/NG cation; Range of dupation of action (minutes from injection to full recovery) ([1]; rhesus monkey, in vivo): 4 to 6 min
6 | C[N+](C)(C)CCCCCCCCCC[N+](C)(C)C [decamethonium] | – | duration of action [2]: 20 to 40 min
7 | COc1cc2c3cc1Oc1cc(ccc1O)C[C@@H]1c4c(cc(OC)c(O)c4Oc4ccc(cc4)C[C@@H]3N(C)CC2)CC[N+]1(C)C.Cl.O.O.O.O.O.[Cl-] [l-Tube-curarine, d-tubocurarine chloride] | 30 to 50 | ED95 ([1]; dose range to produce 95 per cent block of the twitch response, muscle stimulated indirectly at 0,15 Hz via the sciatic nerve, halothane, nitrous oxide and oxygen anesthesia, 4 animals per compound): 0,2 - 0,4 MG/NG cation
